Experimental data: publication PMC12977544, “Phenotypic high-throughput screening identifies modulators of gut microbial choline metabolism” (mBio, 2026)

Legend:
[1] = test system: E. coli MS 200-1; test: TMA inhibition in bacterial whole cells (LC–MS/MS of d9-TMA from d9-choline); type: cell-based, Escherichia coli MS 200-1; details: Escherichia coli, MS2001, 1.25 h; 1 mM d9-choline in PBS, 75 min, 37°C, anaerobic
Experimental: For TMA inhibition assays, E. coli and P. mirabilis were grown in NCE medium supplemented with 20 mM choline chloride, A. hydrogenalis was grown in MEGA medium supplemented with 3 mM choline chloride, and C. sporogenes was grown in BHI medium supplemented with 20 mM of choline chloride to induce expression of the cut gene cluster. For MIC assays, all bacteria strains were grown in MEGA medium.
Compounds were stored as 10 mM DMSO stocks at –20°C and diluted in DMSO to prepare varying concentrations of inhibitors for testing. Bacteria were grown anaerobically overnight in media supplemented with choline as described above. Cells were pelleted and resuspended in PBS, and d9-choline chloride was added to a final concentration of 1 mM. The final OD600 of the PBS cell resuspensions is as follows: 0.4 (E. coli), 0.15–0.2 (P. mirabilis), 0.2 (C. sporogenes), and 0.4 (A. hydrogenalis). The resuspended cells were added to 96-well plates containing inhibitors (final concentration of 1% DMSO, with final inhibitor concentrations ranging between 0 and 325 µM). The plates were sealed and incubated for 75 min (or 90 min for P. mirabilis) at 37°C. Following incubation, the plates were removed from the anaerobic chamber and analyzed immediately or kept at –20°C until LC–MS/MS analysis. Each inhibitor concentration was tested in triplicate. EC50 values were calculated with GraphPad Prism by fitting the log(inhibitor) vs response—Variable slope (four-parameter) model for non-linear regression.
Samples were kept frozen until analysis and kept cold on ice during handling due to the volatility of TMA. Bacterial cell resuspensions in PBS were diluted 100-fold in LCMS-grade acetonitrile with 0.1% formic acid to lyse cells, precipitate proteins, and extract metabolites. Samples were centrifuged at 4,000 rpm for 10 min at 4°C to pellet proteins. The supernatants were then further diluted 20-fold in LCMS-grade acetonitrile with 0.1% formic acid, and the resulting solution was analyzed by LC–MS/MS.
LC–MS/MS analysis was performed on an Agilent 1290/6470 Triple Quadrupole LC–MS instrument (Agilent Technologies) using electrospray ionization. The mass spectrometer was operated in multiple reaction monitoring (MRM) mode with positive ionization monitoring. The precursor–product ion pairs used in MRM mode were as follows: m/z 69.1m/z → 49.1 (d9-TMA) and m/z 113.2 m/z → 69.1 (d9-choline). The capillary voltage was set to 4.0 kV, and the fragmentor voltage was set to 30 V (d9-TMA) and 115 V (d9-choline). The collision energy for the precursor–product ion pairs was set to 29 V (d9-TMA) and 21 V (d9-choline). MS^1 resolution was set to wide and MS^2 resolution to unit. The drying gas temperature was maintained at 250°C, with a flow rate of 11 L/min and a nebulizer pressure of 45 psi. The time filter width used was 0.07 min. The injection volume of all samples was 1 μL. Samples were injected onto InfinityLab Poroshell 120 (Agilent) HILIC columns (2.7 μm, 100 mm × 2.1 mm, 100 Å) preceded by InfinityLab Poroshell 120 HILIC guard columns (2.1 mm, 1.9µm UHPLC guard). The LC conditions on the binary pump were as follows: a gradient of 5–35% A increasing over 1.95 min (1.2 mL/min), a gradient of 35–5% A decreasing over 0.05 min (1.6 mL/min), and held at 5% A for 0.5 min (2 mL/min). […] Solvent A was 10 mM ammonium formate with 0.1% formic acid, and solvent B was acetonitrile with 0.1% formic acid. Data analysis was performed with Mass Hunter Workstation Data Acquisition and Qualitative Analysis software (Agilent Technologies).

[2] = test system: germ-free C57BL/6 mice colonized with defined community incl. E. coli MS 200-1; test: Serum TMAO in gnotobiotic mice after inhibitor treatment; type: in vivo, Mus musculus C57BL/6
Experimental: One milliliter of culture from each of the six individually grown strains was added to create this mixed culture. In a biosafety cabinet, a 300 mg/mL stock of sterile inhibitor in filter-sterilized DMSO was prepared. After this preparation, a working solution of 3 mg/mL of the inhibitor stock in sterile 1% hydroxyethyl cellulose/1% polysorbate 80 was prepared within 4 days of gavaging the mice and stored at room temperature. A low dose of the inhibitor was also prepared, using a working solution of 0.3 mg/mL of the inhibitor stock in sterile 1% hydroxyethyl cellulose/1% polysorbate 80. The vehicle was prepared in the same way with DMSO without inhibitor. […] Two weeks after colonization, mice were administrated by gavage with 3 mg/kg of the inhibitor or vehicle between 6 and 8 a.m. once a day for three consecutive days. After a 10-day washout period, mice were orally administered 30 mg/kg of the inhibitor once a day (same time as above) for three consecutive days, and blood was collected 24 h after the last gavage. A fecal sample was collected before the first gavage. At sacrifice, tissues collected were blood, cecal contents, a fecal pellet, proximal colon, distal small intestine, liver, and kidney. Mice were anesthetized with isoflurane and underwent cardiac puncture for a terminal blood draw, followed by cervical dislocation. Tissues were snap-frozen in liquid nitrogen. Blood was spun down at 8,000 × g for 8 min at room temperature; the resulting serum layer was removed and snap-frozen. All snap-frozen tissues were stored at -80°C until needed. One volume of plasma and 4 volumes of ice-cold extraction solution (HPLC-grade methanol with 2.5 μM d9-TMAO internal standard) were combined and spun at 21,100 × g for 3 min at 4°C. One volume of the resulting supernatant was then mixed with 1 volume of HPLC-grade water. […] was used for peak quantification, and internal standards were utilized as a comparison to calculate plasma concentrations. Statistical significance was calculated using an unpaired t-test.

[3] = test system: panel of commensal bacterial strains; test: MIC against panel of nine gut commensal bacteria; details: read-out: MICs against gut commensal panel

Row | Structure (SMILES) | EC50 [1] | Serum TMAO level relative to vehicle treatment ([2]; gnotobiotic mice, 30 mg/kg oral gavage daily for 3 days, 1% choline diet, 24 h after last dose, P = 0.054) | Decrease of serum TMAO levels ([2]; gnotobiotic mice, 30 mg/kg, n = 8, P = 0.054) | Decrease of TMAO levels compared to vehicle treatment ([2]; in vivo, mouse model not given) | MIC [3]
1 | Cc1ccc(-c2cc(C(=O)NCCCN3CCc4ccccc4C3)c(C)[nH]2)cc1C [Compound 5] | 12 µM |  |  |  | 
2 | Cc1ccc(-c2cc(C(=O)NCCCCCN3CCCCCC3)c(C)[nH]2)cc1C [Compound 45] |  | about 60 % of vehicle treatment | ~ 40% | approximately 40% | > 200 µM
